“Also recorded” adds a separate entry of the source.
Assays:
MERS-CoV RdRp = MERS-CoV RdRp (Middle East respiratory syndrome-related coronavirus, UniProt K9N7C7); test: cell-based; details: for inhibition at 100 µM: read-out: inhibition / reduction of MERS-CoV RdRp activity
HEK293T cells = test: cytotoxicity / cell viability (CellTiter 96 AQueous One Solution)
[1] = HEK-293T, read-out: MERS-CoV RdRp activity (%)

MERS-CoV RdRp, sequence (K9N7C7 4378-5310 limits assumed): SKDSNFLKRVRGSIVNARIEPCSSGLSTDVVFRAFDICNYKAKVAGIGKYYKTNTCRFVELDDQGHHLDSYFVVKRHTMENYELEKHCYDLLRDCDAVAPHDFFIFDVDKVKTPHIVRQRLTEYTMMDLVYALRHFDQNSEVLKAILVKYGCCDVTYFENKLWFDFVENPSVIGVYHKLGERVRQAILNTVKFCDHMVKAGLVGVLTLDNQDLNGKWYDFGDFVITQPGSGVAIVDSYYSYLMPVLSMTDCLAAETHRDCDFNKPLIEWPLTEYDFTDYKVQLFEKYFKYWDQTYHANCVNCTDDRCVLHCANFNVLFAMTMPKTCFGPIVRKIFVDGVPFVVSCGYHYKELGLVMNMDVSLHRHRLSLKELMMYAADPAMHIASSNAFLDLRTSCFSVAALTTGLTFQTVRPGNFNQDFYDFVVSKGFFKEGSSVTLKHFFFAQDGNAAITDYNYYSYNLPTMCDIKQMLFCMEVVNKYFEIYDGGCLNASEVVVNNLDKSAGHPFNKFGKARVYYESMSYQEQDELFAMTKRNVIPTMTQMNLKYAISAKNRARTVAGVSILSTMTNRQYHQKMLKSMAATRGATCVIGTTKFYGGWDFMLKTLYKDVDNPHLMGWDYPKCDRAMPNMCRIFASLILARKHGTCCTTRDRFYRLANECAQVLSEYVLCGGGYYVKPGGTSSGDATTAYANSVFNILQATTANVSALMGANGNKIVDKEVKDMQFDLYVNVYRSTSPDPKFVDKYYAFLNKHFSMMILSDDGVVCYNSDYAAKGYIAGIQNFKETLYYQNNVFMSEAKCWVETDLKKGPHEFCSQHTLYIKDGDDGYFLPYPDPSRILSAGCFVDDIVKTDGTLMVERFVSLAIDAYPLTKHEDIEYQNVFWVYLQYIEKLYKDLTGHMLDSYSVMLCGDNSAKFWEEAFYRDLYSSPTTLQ

Row | SMILES | effect on MERS-CoV RdRp activity (in words) (MERS-CoV RdRp) | activity at 100 µM (MERS-CoV RdRp; [1]) [%] | inhibition at 100 µM (MERS-CoV RdRp; HEK-293T) [%] | other results
1 | Cc1cn([C@H]2C[C@H](N=[N+]=[N-])[C@@H](CO)O2)c(=O)[nH]c1=O [zidovudine] | did not reduce; also recorded: no significant effect | 111 ± 3.7 | – | –
2 | CCC(CC)COC(=O)[C@H](C)N[P@](=O)(OC[C@H]1O[C@@](C#N)(c2ccc3c(N)ncnn23)[C@H](O)[C@@H]1O)Oc1ccccc1 [remdesivir] | – | – | – | IC50 (MERS-CoV RdRp): 5.028 ± 0.035 µM; activity at 12 µM (MERS-CoV RdRp; [1]): 22.3 ± 0.3%; cytotoxicity (HEK293T cells; HEK293T cells, 12 μM): no cytotoxicity was observed
3 | CC(C)OC(=O)[C@H](C)N[P@](=O)(OC[C@H]1O[C@@H](n2ccc(=O)[nH]c2=O)[C@](C)(F)[C@@H]1O)Oc1ccccc1 [sofosbuvir] | no significant effect | 62.4 ± 5.3 | ~40 | –
4 | NC(=O)c1ncn([C@@H]2O[C@H](CO)[C@@H](O)[C@H]2O)n1 [ribavirin] | no significant effect | 60.3 ± 2.9 | ~40 | –
5 | COc1c(-c2ccc3cc(NS(C)(=O)=O)ccc3c2)cc(-n2ccc(=O)[nH]c2=O)cc1C(C)(C)C [dasabuvir] | significantly inhibited, but not completely inhibited | – | – | IC50 (MERS-CoV RdRp): 11.6 µM; reduction of MERS-CoV RdRp activity (MERS-CoV RdRp): about 50%; activity at 10 µM (MERS-CoV RdRp; [1]): 51.5 ± 4.2%; cytotoxicity (HEK293T cells; HEK293T cells, 10 μM, 18 hours): no cytotoxicity was observed; concentration at which cytotoxicity was reduced by half (HEK293T cells; HEK293T cells, 18 hours): 27.143 µM; cytotoxicity (HEK293T cells; HEK293T cells, concentration exceeding 10 μM, 18 hours): cytotoxicity was observed
6 | CC(C)[C@H](N)C(=O)OCCOCn1cnc2c(=O)[nH]c(N)nc21 [valacyclovir] | did not reduce; also recorded: no significant effect | 90.2 ± 3.2 | – | –
7 | Nc1ccn([C@@H]2CS[C@H](CO)O2)c(=O)n1 [lamivudine] | – | 98.3 ± 1.2 | – | –
8 | NC(=O)c1nc(F)c[nH]c1=O [favipiravir] | no significant effect | 85.8 ± 2.4 | ~10 | –
9 | Nc1ncnc2c1ncn2[C@@H]1O[C@H](CO)[C@@H](O)[C@@H]1O [vidarabine] | did not reduce; also recorded: did not affect the NLuc/FLuc ratio or MERS-CoV RdRp activity; also recorded: no significant effect | 89.9 ± 2.9 | – | FLuc activity (internal control) (MERS-CoV RdRp): reduced in a concentration-dependent manner; NLuc activity (MERS-CoV RdRp): reduced in a concentration-dependent manner; cytotoxicity (HEK293T cells; concentration not stated (tested up to 100 μM)): did not show cytotoxicity

Reference: patent publication US12674148B2, “Cell-based reporter assay for screening inhibitors of coronavirus RNA-dependent RNA polymerase activity” (priority 2020, dated 2026)
